Data reported in ChEMBL document CHEMBL1129374 (J Med Chem, 1996).

Key:
Dihydrofolate reductase = target: T1, Dihydrofolate reductase (Mus musculus, UniProt P00375); assay: compound was evaluated for the inhibitory activity against Dihydrofolate reductase in permeabilised L1210 cells.; format: cell-based
T1 sequence (P00375 whole entry): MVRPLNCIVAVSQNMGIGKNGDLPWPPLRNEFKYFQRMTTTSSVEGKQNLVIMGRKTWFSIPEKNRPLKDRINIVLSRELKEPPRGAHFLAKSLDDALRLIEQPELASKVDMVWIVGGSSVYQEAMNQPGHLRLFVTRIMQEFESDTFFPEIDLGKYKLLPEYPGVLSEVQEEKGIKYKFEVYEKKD

L1210 [1] = assay: Compound was evaluated for the inhibition of L1210 murine leukemia cell growth.; format: functional, cell-based; conditions: Mus musculus
[2] = target: T2, Folylpolyglutamate synthase, mitochondrial (Homo sapiens, UniProt Q05932); assay: Compound was evaluated for the inhibitory activity against Folyl-polyglutamate synthase from CCRF-CEM human leukemia cells.; format: cell-based
T2 sequence (Q05932 whole entry): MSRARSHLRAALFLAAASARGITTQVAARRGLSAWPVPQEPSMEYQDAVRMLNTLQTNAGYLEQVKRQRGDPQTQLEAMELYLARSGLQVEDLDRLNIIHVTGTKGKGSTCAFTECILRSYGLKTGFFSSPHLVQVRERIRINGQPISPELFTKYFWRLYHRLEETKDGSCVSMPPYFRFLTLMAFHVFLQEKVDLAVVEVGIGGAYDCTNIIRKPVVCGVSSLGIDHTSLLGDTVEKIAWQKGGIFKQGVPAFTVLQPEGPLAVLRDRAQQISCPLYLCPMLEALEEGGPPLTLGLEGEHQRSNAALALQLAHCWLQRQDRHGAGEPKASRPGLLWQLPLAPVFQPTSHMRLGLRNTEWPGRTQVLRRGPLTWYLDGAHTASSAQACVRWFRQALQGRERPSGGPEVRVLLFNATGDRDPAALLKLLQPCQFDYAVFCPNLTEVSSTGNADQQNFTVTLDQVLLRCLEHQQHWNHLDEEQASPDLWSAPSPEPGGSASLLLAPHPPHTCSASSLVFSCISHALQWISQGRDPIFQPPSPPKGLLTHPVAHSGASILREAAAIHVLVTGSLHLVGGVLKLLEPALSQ

L1210 [3] = assay: Compound was evaluated for the inhibition of L1210 murine leukemia cell growth.(In this study); conditions: Mus musculus
L1210 [4] = assay: Compound was evaluated for the inhibition of L1210 murine leukemia cell growth.(From ref 12b); conditions: Mus musculus

SMILES	IC50 (Dihydrofolate reductase) [nM]	IC50 (L1210 [1]) [nM]	IC50 [2] [nM]	IC50 (L1210 [3]) [nM]	IC50 (L1210 [4]) [nM]
Nc1nc2ncc(CNc3ccc(C(=O)NC(Cc4cnc[nH]4)C(=O)O)cc3)nc2c(=O)[nH]1 (configuration not stated)	> 100000	> 100000	> 200000	–	–
CN(Cc1cnc2nc(N)nc(N)c2n1)c1ccc(C(=O)N[C@@H](CCC(=O)O)C(=O)O)cc1 [METHOTREXATE]	–	–	3200	7	1300
CN(Cc1cnc2nc(N)nc(N)c2n1)c1ccc(C(=O)NC(Cc2cnc[nH]2)C(=O)O)cc1 (configuration not stated)	1300	91	> 200000	–	–
CN(Cc1cnc2nc(N)nc(N)c2n1)c1ccc(C(=O)NC(Cc2cn(CC(=O)O)cn2)C(=O)O)cc1 (configuration not stated)	370	150	> 200000	–	–
